Assay results: patent publication US20260327655A1, “SMALL-MOLECULE REGULATED ALTERNATIVE SPLICING” (priority 2023, published 2026)

What was measured:
[1] = test system: RS1-1 and variants; assay: Luciferase induction assay, RS1-1 and variants in HEK-293T cells; format: cell-based, human; conditions: RS1-1, RS1-2, RS1-3, RS1-4, RS1-7, and RS1-9; FIG. 9A; 18 hours
Experimental: (§1) HEK-293T cells were cultured in DMEM+10% FBS, collected after trypsinization, and dispensed into 96-well plates (cell culture-treated). Each well of the plate was seeded with 1.0×10^5 cells in 100 μL culture medium. After a 1-hour incubation in the tissue culture incubator (5% CO2, 37° C.), plasmid DNA was complexed with a transfection reagent, such as Lipofectamine 3000, and added to respective wells on the plate. Each well received 100 ng of plasmid DNA complexed with 0.15 μL Lipofectamine 3000. The plasmids utilized in the experiment encoded a CMV promoter upstream of the RS1-1 variant that controlled the expression of a Firefly Luciferase gene followed by a SV40 polyadenylation signal. After a 10-minute incubation at room temperature, either DMSO vehicle or a splice modulator compound at specified doses was added to the wells of the plate. Plates were then incubated for 18 hours in a tissue culture incubator. Endpoint analysis was performed by adding 100 μL of a Luciferase substrate, such as Steady-Luc Firefly Luciferase substrate, to each well of the assay plate. The liquid contents of each was transferred to a 96-well plate, mixed again for 2 min on an orbital shaker, and incubated at room temperature for 5 min. Finally, the luminescent signal from each well was measured with a plate reader.

[2] = test system: RS1-10, HepG2 cells; assay: RS1-10 performance in HepG2 cells; format: cell-based, human; conditions: CBA promoter, 18 hours, FIG. 10D
Experimental: The human SH-SY5Y neuroblastoma cell line or the human hepatic HepG2 cell line was cultured in EMEM+10% FBS, collected after trypsinization, and then dispensed into 96-well plates (cell culture-treated). Each well of the plate was seeded with 1.0×10^5 cells in 100 μL culture medium. After a 1-hour incubation in the tissue culture incubator (5% CO2, 37 degrees C.), plasmid DNA was complexed with a transfection reagent, such as Lipofectamine 3000, and added to respective wells on the plate. Each well received an equivalent of 100 ng of plasmid DNA complexed with 0.15 μL Lipofectamine 3000 (Opti-MEM I was used as diluent). Triplicate wells were used for each condition tested in the experiment. The plasmids utilized in the human SH-SY5Y neuroblastoma cell line encoded either a CBA promoter or cloned human Synapsin promoter upstream of the RS1-10 construct that controlled the expression of a Firefly Luciferase gene followed by a SV40 polyadenylation signal. The plasmids utilized in the HepG2 cells encoded a CBA promoter upstream of the RS1-10 construct that controlled the expression of a Firefly Luciferase gene followed by a SV40 polyadenylation signal.
After a 10-minute incubation at room temperature, either DMSO vehicle or TA was added to the wells of the plate. […] Finally, the luminescent signal from each well was measured with a plate reader. […]

[3] = test system: RS1-10 minigene (Firefly Luciferase), HEK-293T cells; assay: Luciferase induction assay, RS1-10 with splice modulator compounds in HEK-293T cells; format: cell-based; conditions: Homo sapiens, 18 hours, n of 3, read-out: Mean fold-induction of luciferase (relative to vehicle control)
Experimental: (§2) HEK-293T cells were cultured in DMEM+10% FBS, collected after trypsinization, and then dispensed into 96-well plates (cell culture-treated). Each well of the plate was seeded with 1.0×10^5 cells in 100 μL culture medium. After a 1-hour incubation in a tissue culture incubator (5% CO2, 37 degrees C.), plasmid DNA was complexed with a transfection reagent, such as Lipofectamine 3000, and added to respective wells on the plate. Each well received an equivalent of 100 ng of plasmid DNA complexed with 0.15 μL Lipofectamine. Triplicate wells were used for each condition tested in the experiment. The plasmid utilized in the experiment encoded a CMV promoter upstream of the RS I-10 variant that controlled the expression of a Firefly Luciferase gene followed by a SV40 polyadenylation signal. After a 10-minute incubation at room temperature, either DMSO vehicle or specified compound at specified dose was added to the wells of the plate. Plates were then incubated for 18 hours in a tissue culture incubator. Endpoint analysis was performed by adding 100 uL Steady-Luc Firefly Luciferase substrate to each well of the assay plate. After mixing, the liquid contents of each was transferred to a 96-well plate, mixed again for 2 min on an orbital shaker, and incubated at room temperature for 5 min. Finally, the luminescent signal from each well was measured with a with PerkinElmer Envision plate reader. The results of this assay show RS1-10 responded to the majority of the splice modulator compounds used in a dose responsive manner (FIG. 9C). Bars represent mean+/−standard deviation of 3 wells normalized to vehicle controls.

[4] = test system: RS2-3 minigene (Firefly Luciferase), HEK-293T cells; assay: Luciferase induction assay, RS2-3 with splice modulator compounds in HEK-293T cells; format: cell-based; conditions: Homo sapiens, 18 hours, n of 3, read-out: Mean fold-induction of luciferase (relative to vehicle control)
Experimental: as §2, with “RS2-3” for “RS I-10”, “RS2-3” for “RS1-10”, “used” for “used in a dose responsive manner”, “13C)” for “9C).”

[5] = test system: RS3-13 minigene (Firefly Luciferase), HEK-293T cells; assay: Luciferase induction assay, RS3-13 with splice modulator compounds in HEK-293T cells; format: cell-based; conditions: Homo sapiens, 18 hours, n of 3, read-out: Mean fold-induction of luciferase (relative to vehicle control)
Experimental: as §2, with “RS3-13” for “the RS I-10 variant”, “RS3-13” for “RS1-10”, “used” for “used in a dose responsive manner”, “14D)” for “9C).”

[6] = test system: RS3-1 and variants; assay: Luciferase induction assay, RS3-1 and variants in HEK-293T cells; format: cell-based, human; conditions: 18 hours
Experimental: as §1, with “RS3-1 construct and variants” for “RS1-1 variant”, “116B” for “a splice modulator compound”, “reader. […]” for “reader.”

[7] = test system: RS4-1 and variants; assay: Luciferase induction assay, RS4-1 and variants in HEK-293T cells; format: cell-based, human; conditions: 18 hours, FIGS. 15A, 15B
Experimental: as §1, with “of the RS4-1 construct and variants that controlled” for “of the RS1-1 variant that controlled”, “vehicle or 24 A at specified” for “vehicle or a splice modulator compound at specified”, “adding 100 uL of a” for “adding 100 μL of a”, “plate reader. […]” for “plate reader.”

## Cc1cn2cc(-c3ccc(-c4ccc(C5CNC5)nn4)c(O)c3)cc(F)c2n1.Cl [1 A, 2-(6-(azetidin-3-yl)pyridazin-3-yl)-5-(8-fluoro-2-methylimidazo[1,2-a]pyridin-6-yl)phenol, HCl]
[1]
  fold induction of luciferase: increasing fold induction of luciferase with increasing concentration of splice modulator
[2]
  fold-induction of luciferase: showed fold-induction of luciferase

## Cc1cn2cc(-c3nc(=O)n4cc(N5CCN[C@@H](C)C5)cc(F)c4n3)cc(F)c2n1 [Compound 116B, (S)-9-fluoro-2-(8-fluoro-2-methylimidazo[1,2-a]pyridine-6-yl)-7-(3-methylpiperazin-1-yl)-4H-pyrido[1,2-a][1,3,5]triazin-4-one]
[3]; RS1-10, 100 nM
  fold induction at 0.1 µM: 71.8
[3]; RS1-10, 1,000 nM
  fold induction at 1 µM: 96.6
[4]; RS2-3, 100 nM
  fold induction at 0.1 µM: 19.8
[4]; RS2-3, 1,000 nM
  fold induction at 1 µM: 39.9
[5]; RS3-13, 100 nM
  fold induction at 0.1 µM: 33.4
[5]; RS3-13, 1,000 nM
  fold induction at 1 µM: 64.6
[6]; 100 nM (FIGS. 14A, 14B), 200 nM or 600 nM (FIG. 14C)
  fold induction of luciferase compared to vehicle, constructs vs RS3-1: Some of the constructs show higher fold induction of luciferase in the presence of 116B compared to vehicle than RS3-1
[6]; RS3-1 variants, 200 nM and 600 nM (FIG. 14C)
  fold induction of luciferase, concentration dependence: higher fold induction of luciferase with higher concentrations of 116B
[7]
  fold-induction of luciferase: increasing fold-induction of luciferase with increasing concentrations
